From patent publication US8703158B2, “Theobromine for the treatment of cough” (Biocopea Limited, priority 2009, dated 2014)

How the values were obtained:
[1] = tested on: citric acid-induced cough responses; test: citric acid-induced cough in guinea pigs (antitussive activity); format: in vivo, guinea pig; details: for mean number of citric acid-induced coughs / onset time to the first cough: 0.5 h pretreatment; for mean number of citric acid-induced coughs: vehicle 26±4
Procedure: The aim of this Example is to provide an assessment of the antitussive activity of intra-tracheally (i.t.) or orally dosed (p.o.) administered theobromine (3-30 mg/kg) compared to the positive control codeine (25 mg/kg, i.p.) against irritant-induced cough responses.
Thirty-six guinea pigs were randomly allocated to one of the six treatment groups (see Table 1) according to the blinding code.

[2] = observations of behaviour and health of dosed animals; details: codeine 25 mg/kg i.p.; reduction in movement in exposure chamber
Procedure: Guinea pigs were dosed intra-tracheally with theobromine or vehicle, orally with theobromine and intra-peronteneally with codeine. All pre-treatments were administered at t−30 min prior to citric acid exposure.

SMILES | mean number of citric acid-induced coughs ([1]; codeine 25 mg/kg i.p., citric acid 1 M, 10 min exposure + 5 min recovery) [coughs] | onset time to the first cough ([1]; codeine 25 mg/kg i.p., vehicle 71±26 s) [s] | behaviour of the animals (sedation) [2] | inhaled dose giving equivalent anti-tussive effect, as fraction of the oral dose ([1]; citric acid-induced cough model, inhaled (i.t.) versus oral) | mean number of citric acid-induced coughs ([1]; theobromine 10 mg/kg i.t.) [coughs] | onset time to the first cough ([1]; theobromine 30 mg/kg p.o., versus vehicle control (71±26 s)) | effect on the total number of coughs ([1]; theobromine 3-30 mg/kg i.t., local administration)
COc1ccc2c3c1O[C@H]1[C@@H](O)C=C[C@H]4[C@@H](C2)N(C)CC[C@@]341 [codeine] | 5±1 | 337 ± 51 | slight sedation | – | – | – | –
Cn1cnc2c1c(=O)[nH]c(=O)n2C [theobromine] | – | – | – | ⅓ | 10.33±2 | not significantly increased | significant dose-dependant effect
